Results as given in patent US12655394B2, “Ovarian cancer organoid culture” (MAX-PLANCK-GESELLSCHAFT ZUR FÖRDERUNG DER WISSENSCHAFTEN …, priority 2018, dated 2026).
Entries after “also recorded” stand apart in the source; their conditions may differ.

B1: Wnt 3a: Wnt protein, e.g. human Wnt 3a (RefSeq NP_149122) (protein, UniProt P56704 19-352, looked up)
Protein Wnt-3a: SYPIWWSLAVGPQYSSLGSQPILCASIPGLVPKQLRFCRNYVEIMPSVAEGIKIGIQECQHQFRGRRWNCTTVHDSLAIFGPVLDKATRESAFVHAIASAGVAFAVTRSCAEGTAAICGCSSRHQGSPGKGWKWGGCSEDIEFGGMVSREFADARENRPDARSAMNRHNNEAGRQAIASHMHLKCKCHGLSGSCEVKTCWWSQPDFRAIGDFLKDKYDSASEMVVEKHRESRGWVETLRPRYTYFKVPTERDLVYYEASPNFCEPNPETGSFGTRDRTCNVSSHGIDGCDLLCCGRGHNARAERRREKCRCVFHWCCYVSCQECTRVYDVHTCK

Assays:
[1] = test system: organoid cell lines ORG1 and ORG2; assay: Carboplatin treatment of organoid cancer lines, cell viability by luminescence (Cell Titer Glow 3D); assay type: cell-based, human; conditions: patient-derived HGSC organoid lines, triplicates, FIG. 5
Method: Cell vialiability (y axis) was determined proportional to the strength of luminiscence signal (Cell Titer® Glow 3D Promega). […] Immunofluorescence analysis of the key structural and functional biomarkers confirmed that organoids match native tumor tissue in phenotype, e.g. PAX8 confirming Mullerean lineage, EpCAM, p53 and p16 (FIG. 4). All tested organoid cultures were matched in phenotype to the fragment of native tumor processed and stained in standard procedure which was used for clinical diagnosis. Ovarian cancer cancer organoids mostly lack central cavities in contrast to fallopian tube organoids which are built of polarized epithelial monolayers. This is expected as histological atypia and stratification are present already in the early stages of the carcinogenesis in the fallopian tube (Shaw et al 2009, Modern Pathology 22, 1135-1138). Panel sequencing of paired organoid culture and tissue confirmed that the tested organoids recapitulate cancer tissue composition also on the genomic level. Importantly cultures can be expanded to multi-well format to enable high throughput experimental set up.

[2] = test system: ovarian cancer stem cells; assay: Establishment of ovarian cancer organoid lines with exogenous Wnt 3a supplementation; assay type: cell-based, human; conditions: all established lines grew in Wnt3a-negative media
Method: • Adv. +++: Advanced F12 Medium+HEPES (6 ml)+Glutamax (5 ml)+5% fetal calf serum (FCS) • Adv. ++: Advanced F12 Medium+HEPES (6 ml)+Glutamax (5 ml) • Cut tissue with a scissor in small pieces and then mince further with scalpel for 3-5 minutes • Collect all fragments, incubate with 2 ml Collagenase Type 1+2 ml Collagenase type II and transfer to a 6 well plate, • Incubate fragments for 45 min at 37° C. 5% CO2, • Add 5 ml Adv +++ and transfer in to a 50 ml Falcon tube, • Vortex vigorously for 30 seconds, • Let pieces settle down, take supernatant and transfer in to a fresh tube, • Add again 5 ml Adv +++, mix with a pipette, • Let pieces settle down, take supernatant and transfer in to a fresh tube, • Centrifuge for 5 min at 400 rpm, • Discard supernatant, • Prepare 10 ml Adv +++, add 30 μl Y-27632 and 10 μl hEGF (final conc. 10 ng/ml), • Resuspend cell pellet in medium, • Seed cell in a flask, • Incubate at 5% CO2 at 37° C. and grow cells 3-5 days prior to transfer to 3D culture. […]

Molecule | response to carboplatin treatment (cell viability) [1] | effect of exogenous supplementation on ovarian cancer stem cells [2]
N.N.O=C([O-])C1(C(=O)[O-])CCC1.[Pt+2] [carboplatin] | differences in responsivness and kinetics; also recorded: individual patient profiles in their response | –
B1 | – | detrimental
